What was measured:
Format in all cases: cell-based
[1] = target: EGFR(D770_N771insSVD) expressing Ba/F3 stable cell line (Homo sapiens, UniProt P00533, DUP768-770, cells depend on it); test: Cellular proliferation (Alamar Blue) assay, EGFR(D770_N771insSVD) Ba/F3; conditions: 72 hr, read-out: D770 IC50
In short: (§1)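 Compound treatment lasted 72 h at 37 °C across a final 10-0.0005 μM range in 3-fold steps; cell growth was measured with Alamar Blue (3 h). Ba/F3 seeded at 15,000 and A431 at 5000 cells/well.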

[2] = target: HER2 (A775_G776insYVMA) expressing Ba/F3 stable cell line (Homo sapiens, UniProt P04626, DUP772-775, cells depend on it); test: Cellular proliferation (Alamar Blue) assay, HER2 (A775_G776insYVMA) Ba/F3; conditions: HER2 (A775_G776insYVMA) Ba/F3 cells; 72 hr; Alamar Blue; read-out: YVMA IC50
In short: as §1

[3] = target: EGFR (A767_dupASV) expressing Ba/F3 stable cell line (Homo sapiens, UniProt P00533, DUP767-769, cells depend on it); test: Cellular proliferation (Alamar Blue) assay, EGFR (A767_dupASV) Ba/F3; conditions: 72 hr, read-out: A767 IC50
In short: as §1

[4] = target: EGFR (H773insNPH) expressing Ba/F3 stable cell line (Homo sapiens, UniProt P00533, DUP771-773, cells depend on it); test: Cellular proliferation (Alamar Blue) assay, EGFR (H773insNPH) Ba/F3; conditions: 72 hr, read-out: NPH IC50
Description: Cell line details: • 1. EGFR(D770_N771insSVD) expressing Ba/F3 stable cell line • 2. EGFR (A767_dupASV) expressing Ba/F3 stable cell line • 3. A431 cells • 4. EGFR (H773insNPH) expressing Ba/F3 stable cell line • 5. HER2 (A775_G776insYVMA) expressing Ba/F3 stable cell line
• 1. Seed cells at 5000 for A431 and 15,000 cells for Ba/F3 in 100 μL/well in complete media (for A431: DMEM with 10% FBS and for Ba/F3 cells: RPMI with 10% FBS) in 96-well tissue culture plate. Leave outer wells without cells for background measurements. Incubate at 37 degree Celsius in 5% CO2 humidified incubator for 16-18 hours. • 2. Add 0.025 ml of 5X concentration compound dilution or DMSO control. Final compound concentration range is 10-0.0005 μM prepared in 3-fold serial dilutions. Incubate for 72 hr at 37 degree Celsius in 5% CO2 humidified incubator. • 3. Add 0.0125 ml Alamar Blue™ reagent to each well with multi-channel pipette and tap gently on each side of the plate to mix. Incubate for 3 hours at 37 degree Celsius in 5% CO2 humidified incubator. • 4. […] Data analysis was performed using XLfit 5.5.0.5.

A431 cells = test: Cellular proliferation (Alamar Blue) assay, A431 cells; conditions: Homo sapiens, A-431, 72 h, A431 cells; 72 hr; Alamar Blue; read-out: A431 IC50
In short: as §1

Chain of EGFR(D770_N771insSVD) expressing Ba/F3 stable cell line (P00533 with tags, fused parts or gaps DUP768-770): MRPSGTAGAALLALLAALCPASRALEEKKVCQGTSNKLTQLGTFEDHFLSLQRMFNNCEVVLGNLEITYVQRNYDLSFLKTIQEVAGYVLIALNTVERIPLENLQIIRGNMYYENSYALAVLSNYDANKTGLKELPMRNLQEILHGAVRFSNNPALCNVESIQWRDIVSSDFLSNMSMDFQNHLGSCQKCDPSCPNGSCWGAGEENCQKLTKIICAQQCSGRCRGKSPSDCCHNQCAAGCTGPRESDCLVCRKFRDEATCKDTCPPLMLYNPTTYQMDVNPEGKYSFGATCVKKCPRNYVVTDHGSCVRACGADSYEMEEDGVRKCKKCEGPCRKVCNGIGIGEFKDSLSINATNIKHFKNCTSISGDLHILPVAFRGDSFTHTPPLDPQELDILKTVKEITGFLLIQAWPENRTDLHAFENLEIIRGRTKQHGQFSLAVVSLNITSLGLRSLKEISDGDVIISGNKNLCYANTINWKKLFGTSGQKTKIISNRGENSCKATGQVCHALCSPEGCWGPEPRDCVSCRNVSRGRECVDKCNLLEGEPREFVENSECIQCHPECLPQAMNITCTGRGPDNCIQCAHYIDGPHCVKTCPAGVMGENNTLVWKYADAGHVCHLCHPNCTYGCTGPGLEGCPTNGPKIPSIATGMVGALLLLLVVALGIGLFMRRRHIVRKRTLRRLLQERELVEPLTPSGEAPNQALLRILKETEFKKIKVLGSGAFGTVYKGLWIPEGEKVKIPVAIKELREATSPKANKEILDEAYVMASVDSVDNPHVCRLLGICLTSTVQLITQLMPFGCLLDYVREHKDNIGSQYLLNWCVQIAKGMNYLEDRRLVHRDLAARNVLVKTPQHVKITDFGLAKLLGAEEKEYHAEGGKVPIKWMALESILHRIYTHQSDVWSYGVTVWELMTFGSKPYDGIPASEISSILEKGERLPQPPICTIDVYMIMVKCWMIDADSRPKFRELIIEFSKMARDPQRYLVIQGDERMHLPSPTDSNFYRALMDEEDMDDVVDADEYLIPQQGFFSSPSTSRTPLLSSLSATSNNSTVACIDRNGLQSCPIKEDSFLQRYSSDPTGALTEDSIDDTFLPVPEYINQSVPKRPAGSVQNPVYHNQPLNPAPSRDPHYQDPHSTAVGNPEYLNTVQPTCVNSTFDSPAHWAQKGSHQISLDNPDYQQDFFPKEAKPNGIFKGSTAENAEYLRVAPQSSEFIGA
Chain of EGFR (H773insNPH) expressing Ba/F3 stable cell line (P00533 with tags, fused parts or gaps DUP771-773): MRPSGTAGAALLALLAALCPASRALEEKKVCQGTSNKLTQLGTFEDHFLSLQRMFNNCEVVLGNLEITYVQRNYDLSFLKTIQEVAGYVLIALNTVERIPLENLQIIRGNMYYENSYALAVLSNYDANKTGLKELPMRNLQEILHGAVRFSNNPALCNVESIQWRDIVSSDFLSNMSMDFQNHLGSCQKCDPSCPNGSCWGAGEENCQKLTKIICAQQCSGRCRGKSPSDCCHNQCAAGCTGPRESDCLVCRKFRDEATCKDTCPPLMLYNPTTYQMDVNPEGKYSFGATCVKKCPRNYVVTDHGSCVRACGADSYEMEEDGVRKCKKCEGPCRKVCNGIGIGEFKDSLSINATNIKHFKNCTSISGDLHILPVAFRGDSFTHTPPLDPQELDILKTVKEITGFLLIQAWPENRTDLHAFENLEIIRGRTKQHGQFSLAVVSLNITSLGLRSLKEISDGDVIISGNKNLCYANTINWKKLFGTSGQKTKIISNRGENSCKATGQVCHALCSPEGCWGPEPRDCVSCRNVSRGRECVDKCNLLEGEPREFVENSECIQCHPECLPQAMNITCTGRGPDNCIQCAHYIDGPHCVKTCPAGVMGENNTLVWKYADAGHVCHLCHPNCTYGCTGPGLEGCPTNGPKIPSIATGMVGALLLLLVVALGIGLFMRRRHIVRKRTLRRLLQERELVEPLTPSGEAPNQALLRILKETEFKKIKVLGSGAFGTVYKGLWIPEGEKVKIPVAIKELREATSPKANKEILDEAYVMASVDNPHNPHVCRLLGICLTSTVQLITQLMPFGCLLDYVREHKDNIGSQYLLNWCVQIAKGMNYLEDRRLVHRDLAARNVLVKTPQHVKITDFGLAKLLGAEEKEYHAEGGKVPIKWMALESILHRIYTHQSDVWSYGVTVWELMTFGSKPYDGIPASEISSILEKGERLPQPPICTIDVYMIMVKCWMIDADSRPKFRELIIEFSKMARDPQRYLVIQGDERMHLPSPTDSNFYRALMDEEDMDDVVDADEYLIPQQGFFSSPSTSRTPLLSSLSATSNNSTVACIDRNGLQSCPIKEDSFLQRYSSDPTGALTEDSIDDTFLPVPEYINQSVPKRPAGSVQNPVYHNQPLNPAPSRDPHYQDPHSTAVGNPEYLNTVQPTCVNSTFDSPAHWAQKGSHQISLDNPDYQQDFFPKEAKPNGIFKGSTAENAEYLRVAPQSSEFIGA
Chain of HER2 (A775_G776insYVMA) expressing Ba/F3 stable cell line (P04626 with tags, fused parts or gaps DUP772-775): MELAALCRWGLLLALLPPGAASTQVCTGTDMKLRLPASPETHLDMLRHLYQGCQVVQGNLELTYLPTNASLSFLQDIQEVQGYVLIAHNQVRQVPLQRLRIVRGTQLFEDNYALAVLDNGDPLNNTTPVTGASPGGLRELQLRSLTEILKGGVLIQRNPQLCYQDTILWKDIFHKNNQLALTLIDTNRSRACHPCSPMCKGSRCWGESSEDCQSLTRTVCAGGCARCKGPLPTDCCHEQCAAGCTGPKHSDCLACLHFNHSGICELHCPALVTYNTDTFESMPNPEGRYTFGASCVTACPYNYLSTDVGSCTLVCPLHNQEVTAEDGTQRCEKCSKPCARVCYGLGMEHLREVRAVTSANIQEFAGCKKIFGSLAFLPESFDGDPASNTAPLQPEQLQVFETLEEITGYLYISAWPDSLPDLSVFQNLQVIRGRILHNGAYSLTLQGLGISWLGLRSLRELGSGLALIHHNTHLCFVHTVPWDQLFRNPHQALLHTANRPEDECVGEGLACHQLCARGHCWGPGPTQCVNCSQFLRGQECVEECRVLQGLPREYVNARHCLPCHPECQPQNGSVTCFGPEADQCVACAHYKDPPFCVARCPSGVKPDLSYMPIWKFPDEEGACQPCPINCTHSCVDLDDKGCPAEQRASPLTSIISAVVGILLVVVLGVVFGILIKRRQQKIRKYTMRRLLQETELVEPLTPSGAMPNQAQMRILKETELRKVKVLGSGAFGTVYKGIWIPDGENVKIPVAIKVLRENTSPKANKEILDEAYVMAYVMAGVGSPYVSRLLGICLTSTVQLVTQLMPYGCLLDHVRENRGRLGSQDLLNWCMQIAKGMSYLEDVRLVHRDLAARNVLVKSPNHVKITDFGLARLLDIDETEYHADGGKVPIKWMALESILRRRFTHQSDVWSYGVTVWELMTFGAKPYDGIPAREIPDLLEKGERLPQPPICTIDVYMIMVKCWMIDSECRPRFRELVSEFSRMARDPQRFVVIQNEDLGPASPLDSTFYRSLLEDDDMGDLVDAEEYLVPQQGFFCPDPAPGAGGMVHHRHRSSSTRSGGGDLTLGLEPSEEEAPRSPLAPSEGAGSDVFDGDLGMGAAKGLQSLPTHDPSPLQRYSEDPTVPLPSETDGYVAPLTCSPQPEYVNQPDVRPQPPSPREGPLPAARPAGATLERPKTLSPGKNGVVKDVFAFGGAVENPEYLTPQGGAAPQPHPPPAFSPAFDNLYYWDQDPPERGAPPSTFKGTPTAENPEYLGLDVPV
Chain of EGFR (A767_dupASV) expressing Ba/F3 stable cell line (P00533 with tags, fused parts or gaps DUP767-769): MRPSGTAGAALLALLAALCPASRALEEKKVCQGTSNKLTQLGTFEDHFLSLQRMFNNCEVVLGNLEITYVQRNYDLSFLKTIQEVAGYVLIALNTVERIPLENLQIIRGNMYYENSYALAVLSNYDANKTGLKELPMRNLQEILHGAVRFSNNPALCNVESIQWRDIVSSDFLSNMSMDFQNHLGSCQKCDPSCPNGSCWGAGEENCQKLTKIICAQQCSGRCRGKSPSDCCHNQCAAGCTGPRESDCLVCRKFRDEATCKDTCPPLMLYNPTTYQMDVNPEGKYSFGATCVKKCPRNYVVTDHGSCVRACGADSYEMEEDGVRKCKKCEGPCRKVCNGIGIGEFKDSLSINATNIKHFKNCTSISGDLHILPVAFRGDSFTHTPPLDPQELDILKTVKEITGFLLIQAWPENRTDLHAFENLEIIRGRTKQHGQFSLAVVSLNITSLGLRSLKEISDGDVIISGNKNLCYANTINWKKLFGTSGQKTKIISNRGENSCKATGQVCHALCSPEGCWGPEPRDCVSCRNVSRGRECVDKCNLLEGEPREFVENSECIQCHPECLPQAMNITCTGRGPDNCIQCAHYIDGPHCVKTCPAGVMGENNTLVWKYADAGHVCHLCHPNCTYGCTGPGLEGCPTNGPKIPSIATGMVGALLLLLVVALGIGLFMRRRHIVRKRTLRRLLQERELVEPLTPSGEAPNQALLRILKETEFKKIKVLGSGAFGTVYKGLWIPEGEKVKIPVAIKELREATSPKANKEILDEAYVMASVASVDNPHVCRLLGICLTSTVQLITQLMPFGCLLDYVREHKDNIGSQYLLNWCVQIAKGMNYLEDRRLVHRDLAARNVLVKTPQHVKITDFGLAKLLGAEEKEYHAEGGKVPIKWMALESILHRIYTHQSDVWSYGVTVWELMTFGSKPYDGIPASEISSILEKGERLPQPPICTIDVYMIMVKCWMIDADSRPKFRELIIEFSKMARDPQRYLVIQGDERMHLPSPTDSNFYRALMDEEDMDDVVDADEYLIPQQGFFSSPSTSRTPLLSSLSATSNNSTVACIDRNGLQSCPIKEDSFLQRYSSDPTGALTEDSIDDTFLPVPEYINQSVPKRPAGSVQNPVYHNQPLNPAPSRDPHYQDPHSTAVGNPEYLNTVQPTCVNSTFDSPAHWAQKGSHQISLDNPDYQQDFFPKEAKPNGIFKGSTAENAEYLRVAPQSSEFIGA

Structure (SMILES) | GI50 [1] | GI50 [2] | GI50 [3] | GI50 [4] | IC50 (A431 cells)
C=CC(=O)Nc1ccc(F)c(Nc2nc(Nc3cnn(C)c3)ncc2-c2ccc(OC)c(Cl)c2)c1 [Compound 3, N-(3-((5-(3-chloro-4-methoxyphenyl)-2-((1-methyl-1H-pyrazol-4-yl)amino)pyrimidin-4-yl)amino)-4-fluorophenyl)acrylamide] | 90 nM | 432 nM | 91 nM | 103 nM | 2320 nM
C=CC(=O)Nc1ccc(F)c(Nc2nc(Nc3cnn(C)c3)ncc2-c2ccc(F)c(Cl)c2)c1 [Compound 6, N-(3-((5-(3-chloro-4-fluorophenyl)-2-((1-methyl-1H-pyrazol-4-yl)amino)pyrimidin-4-yl)amino)-4-fluorophenyl)acrylamide] | 51 nM | 187 nM | 80 nM | 83 nM | 810 nM
C=CC(=O)Nc1ccc(F)c(Nc2nc(Nc3cnn(C)c3)ncc2-c2ccc(C(F)(F)F)c(Cl)c2)c1 [Compound 54, N-(3-((5-(3-chloro-4-(trifluoromethyl)phenyl)-2-((1-methyl-1H-pyrazol-4-yl)amino)pyrimidin-4-yl)amino)-4-fluorophenyl)acrylamide] | 85 nM | 260 nM | 184 nM | 186 nM | 
C=CC(=O)Nc1ccc(F)c(Nc2nc(Nc3cnn(C)c3)ncc2-c2ccc(C3=CCN(C)CC3)c(F)c2)c1 [Compound 55, N-(4-fluoro-3-((5-(3-fluoro-4-(1-methyl-1,2,3,6-tetrahydropyridin-4-yl)phenyl)-2-((1-methyl-1H-pyrazol-4-yl)amino)pyrimidin-4-yl)amino)phenyl)acrylamide] | 2240 nM |  | 800 nM | 3640 nM | 2230 nM
C=CC(=O)Nc1ccc(F)c(Nc2nc(Nc3cnn(C)c3)ncc2-c2ccc(N3CCCOCC3)c(F)c2)c1 [Compound 84, N-(4-fluoro-3-((5-(3-fluoro-4-(1,4-oxazepan-4-yl)phenyl)-2-((1-methyl-1H-pyrazol-4-yl)amino)pyrimidin-4-yl)amino)phenyl)acrylamide] | 122 nM |  | 101 nM | 92 nM | 522 nM

Now those with a lower GI50 [1], led by results:

GI50 [1] | GI50 [2] | GI50 [3] | GI50 [4] | IC50 (A431 cells) | Structure (SMILES)
38 nM |  | 56 nM | 79 nM | 110 nM | C=CC(=O)Nc1ccc(F)c(Nc2nc(Nc3cnn(CCO)c3)ncc2-c2ccc(Cl)c(Cl)c2)c1 [Compound 51, N-(3-((5-(3,4-dichlorophenyl)-2-((1-(2-hydroxyethyl)-1H-pyrazol-4-yl)amino)pyrimidin-4-yl)amino)-4-fluorophenyl)acrylamide]
36 nM | 91 nM | 36 nM | 36 nM | 269 nM | C=CC(=O)Nc1ccc(F)c(Nc2nc(Nc3cnn(C)c3)ncc2-c2ccc(OC)c(F)c2)c1 [Compound 1, N-(4-fluoro-3-((5-(3-fluoro-4-methoxyphenyl)-2-((1-methyl-1H-pyrazol-4-yl)amino)pyrimidin-4-yl)amino)phenyl)acrylamide]
35 nM | 91 nM |  | 40 nM | 299 nM | C=CC(=O)Nc1cccc(Nc2nc(Nc3cnn(C)c3)ncc2-c2ccc(N(C)C)c(F)c2)c1 [Compound 30, N-(3-((5-(4-(dimethylamino)-3-fluorophenyl)-2-((1-methyl-1H-pyrazol-4-yl)amino)pyrimidin-4-yl)amino)phenyl)acrylamide]
30 nM | 208 nM | 39 nM | 79 nM | 200 nM | C=CC(=O)Nc1ccc(F)c(Nc2nc(Nc3cnn(C)c3)ncc2-c2ccc(F)c(F)c2)c1 [Compound 5, N-(3-((5-(3,4-difluorophenyl)-2-((1-methyl-1H-pyrazol-4-yl)amino)pyrimidin-4-yl)amino)-4-fluorophenyl)acrylamide]
14 nM |  | 23 nM | 21 nM | 60 nM | C=CC(=O)Nc1cccc(Nc2nc(Nc3cnn(C)c3)ncc2-c2ccc(Cl)c(F)c2)c1 [Compound 68, N-(3-((5-(4-chloro-3-fluorophenyl)-2-((1-methyl-1H-pyrazol-4-yl)amino)pyrimidin-4-yl)amino)phenyl)acrylamide]

Reference: patent US20230416232A1, “PYRIMIDINE COMPOUNDS, COMPOSITIONS, AND MEDICINAL APPLICATIONS THEREOF” (Blueprint Medicines Corporation, priority 2020, published 2023)
